A short description of data set [1]: Comparison of R isomer and racemic baclofen for solubility, stability and pH. Type of data set: physicochemical. Particulars: data not shown. An excerpt:
Accordingly, the Examples presented herein, which employed a racemic mixture, are also applicable to the L-isomer […].

Data set [2] can be described thus: pH profile of baclofen prior to steam sterilization and 4-CPP impurity levels post-steam sterilization. Particulars: 4-CPP post-steam sterilization. It is filed as physicochemical. Set-up: unit not given here. An excerpt:
In some embodiments, the present application provides methods and baclofen formulations having low 4-CPP concentrations by controlling the pH of the baclofen solution prior to steam sterilization, where the pH is in the range of between about 4.0 to about 7.0, the amount of 4-CPP formed is reduced, when the pH is raised to between about 5.0 to about 7.0 after heat sterilization. In some embodiments, the 4-CPP impurity levels are low at a pH of between about 4.0 to about 4.5. The pH profile of the baclofen, prior to steam sterilization and the 4-CPP impurity levels post-steam sterilization are shown below in Table A.

For data set [3] the following is noted: therapeutically effective intrathecal concentrations, injected into the intrathecal space of a patient; cited from earlier work.
For data set [4] the following is noted: reported by some sources; equilibrium with particulate baclofen present; cited from earlier work.
A short description of data set [5]: Stability of baclofen in sulfate or phosphate solutions over 9 weeks. It is filed as physicochemical. Particulars: phosphate or sulfate buffer with NaCl, pH 6, aqueous buffer. As to the method:
The formulations were stored at 37° C., ambient temperature, and 4° C. over 9 weeks. pH, drug concentration, and 4-CPP were measured. Physical properties, such as particulate, precipitation, color and the like were observed.

Data set [6] is described as follows: Rotarod (impaired motor skills) after intrathecal delivery to rats. Type of data set: in vivo. Particulars: equivalent doses, data not shown. As for the experimental part: Studies were performed to examine the effects of different baclofen compositions delivered intrathecally to rats. In one study, the therapeutic response mediated by spinal GABA-b receptors (thermal analgesia) with a nonspecific side effect (impaired motor skills on the rotarod) caused by L or DL-baclofen were compared. Equivalent doses of L-baclofen and DL-baclofen (adjusted to deliver the same amount of L-baclofen) produced very similar analgesic activity in the thermal nociception assay, while D-baclofen was ineffective (data not shown).
For orientation: In the rotarod test animals must keep their balance on a rotating rod.

One may read the solubility as how much of the substance goes into solution per volume.

Regarding `NC[C@H](CC(=O)O)c1ccc(Cl)cc1` (single isomer, unassigned) [R isomer], the “solubility, stability and pH relative to racemic mixtures of baclofen” value in data set [1] was “behave essentially the same”.
For the compound `NCC(CC(=O)O)c1ccc(Cl)cc1` (stereo not shown) [Baclofen, 4-amino-3-(p-chlorophenyl)butyric acid], the “Impurity Level of 4-CPP” value in data set [2] (pH 4.0 prior to steam sterilization) was determined as 1.7; in data set [2] (pH 4.2 prior to steam sterilization), 1.3; in data set [2] (pH 4.4 prior to steam sterilization), 1.1; in data set [2] (pH 4.6 prior to steam sterilization) it was 0.7; in data set [2] (pH 4.8 prior to steam sterilization), 0.5; in data set [2] (pH 5.0 prior to steam sterilization) it was 0.4. The “Impurity Level of 4-CPP” value in data set [2] (pH 5.2 prior to steam sterilization) is 0.4; in data set [2] (pH 5.4 prior to steam sterilization) it was 0.5; in data set [2] (pH 5.6 prior to steam sterilization), 0.6; in data set [2] (pH 5.8 prior to steam sterilization), 0.7; in data set [2] (pH 6.0 prior to steam sterilization), 0.8; in data set [2] (pH 6.2 prior to steam sterilization) it was 0.9. Further, the “Impurity Level of 4-CPP” value in data set [2] (pH 6.4 prior to steam sterilization) was 1.1; in data set [2] (pH 6.6 prior to steam sterilization) it was 1.2; in data set [2] (pH 6.8 prior to steam sterilization), 1.4; in data set [2] (pH 7.0 prior to steam sterilization), 1.5. The “plasma concentrations, intrathecal relative to oral administration” value in data set [3] is listed as 100 times less. For the same compound, the “upper limit on room temperature aqueous solubility” value in data set [4] is on record as “about 4 mg/mL”. Moreover, in data set [5], the solubility at 9 weeks is at least 4000 µg/mL.
`NC[C@H](CC(=O)O)c1ccc(Cl)cc1` [D-baclofen]: the “motor impairment on the rotarod” value in data set [6] is “no significant effect”.
For the compound `NC[C@H](CC(=O)O)c1ccc(Cl)cc1` [L-baclofen], the “motor impairment on the rotarod” value in data set [6] was “statistically less motor impairment on the rotarod than DL-baclofen”.

Values taken from patent publication US10420740B2, “Baclofen formulations and methods for making same” (SAOL INTERNATIONAL LIMITED, priority 2011, dated 2019).
